Assays:
MOOVA (Monochoria) = assay: Preemergence weed control under flooded paddy conditions; type: in vivo, Monochoria vaginalis; settings: rated 3-4 weeks after treatment
In short: (§1)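 Visual injury scored 0-9 against control three to four weeks post-treatment, greenhouse-grown. Application: acetone/water (50/50) solutions dosed directly into flood water (1.5-3 cm over silt loam, planted top 0.5 cm), roughly 0.0313 to 0.500 kg/ha active ingredient.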

ZEAMX (Corn, Field) [1] = assay: Postemergence herbicidal evaluation; type: in vivo, Zea mays; settings: postemergence
In short: (§2)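 Scores (0–9) reflect plant stand, vigor, malformation, size, chlorosis and general appearance relative to control, read 4 to 5 weeks after treatment and averaged where tests were repeated. Application: about 0.0156–0.500 kg/ha sprayed at 40 psi onto two-week seedlings.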

ECHCG (Barnyardgrass) = assay: Preemergence herbicidal evaluation; type: in vivo, Echinochloa crus-galli; settings: rated 4-5 weeks after treatment
In short: (§3)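 Scores use a 0–9 visual scale covering stand, vigor, malformation, size and chlorosis relative to controls, rated four to five weeks after treatment. Before emergence, soil-planted seeds were sprayed with compound in aqueous acetone at roughly 0.0156–0.500 kg/ha and held in the greenhouse.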

CYPIR (Rice Flatsedge) = assay: Preemergence weed control under flooded paddy conditions; type: in vivo, Cyperus iria; settings: rated 3-4 weeks after treatment
In short: (§4)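 Herbicidal effect is scored visually on a 0-9 scale against an untreated control, three to four weeks after compounds are pipetted into the flood water (1.5 to 3 cm deep) over seeds planted in silt loam at 0.5 cm depth. Rates: about 0.0313 to 0.500 kg/ha.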

[2] = test system: ECHORC (Watergrass (Calif.)); assay: as above; type: in vivo, Echinochloa oryzoides; settings: rated 3-4 weeks after treatment
In short: as §4

SETVI (Foxtail, Green) = assay: Preemergence herbicidal evaluation; type: in vivo, Setaria viridis; settings: rated 4-5 weeks after treatment
In short: as §3

CASOB (Sicklepod) [3] = assay: Preemergence herbicidal evaluation; type: in vivo, Cassia obtusifolia; settings: rated 4-5 weeks after treatment
In short: as §3

[4] = test system: TRZAWR (Wheat, Winter, cv Riband); assay: Preemergence herbicidal evaluation; type: in vivo, Triticum aestivum; settings: rated 4-5 weeks after treatment
In short: as §3

[5] = test system: GLXMAW (Soybean, Williams); assay: Preemergence herbicidal evaluation; type: in vivo, Glycine max, (L.) Merr. cv Williams; settings: rated 4-5 weeks after treatment
In short: as §3

CASOB (Sicklepod) [6] = assay: Postemergence herbicidal evaluation; type: in vivo, Cassia obtusifolia; settings: postemergence
In short: as §2

GALAP (Galium) = assay: Preemergence herbicidal evaluation; type: in vivo, Galium aparine; settings: rated 4-5 weeks after treatment
In short: as §3

CYPSE (Flatsedge) = assay: Preemergence weed control under flooded paddy conditions; type: in vivo, Cyperus serotinus; settings: rated 3-4 weeks after treatment
In short: as §1

[7] = test system: IPOHE (Morningglory, Ivyleaf); assay: Preemergence herbicidal evaluation; type: in vivo, Ipomoea hederacea; settings: rated 4-5 weeks after treatment
In short: as §3

ZEAMX (Corn, Field) [8] = assay: Preemergence herbicidal evaluation; type: in vivo, Zea mays; settings: rated 4-5 weeks after treatment
In short: as §3

ABUTH (Velvetleaf) = assay: Preemergence herbicidal evaluation; type: in vivo, Abutilon theophrasti; settings: rated 4-5 weeks after treatment
In short: as §3

[9] = test system: IPOHE (Morningglory, Ivyleaf); assay: Postemergence herbicidal evaluation; type: in vivo, Ipomoea hederacea; settings: postemergence
In short: as §2

Compound: C#CCOC(=O)CN1C(=O)CSC1=Nc1cc(-n2c(=O)cc(C(F)(F)F)n(C)c2=O)c(F)cc1Cl [Compound 115, 2-Propynyl 2-{{2-chloro-5-[3,6-dihydro-3-methyl-2,6-dioxo-4-(trifluoromethyl)-1(2H)-pyrimidinyl]-4-fluorophenyl}imino}-4-oxo-3-thiazolidineacetate]
- MOOVA herbicidal effect rating (MOOVA (Monochoria); 0.0313 kg/ha): 7.0
- MOOVA herbicidal effect rating (MOOVA (Monochoria); 0.0625 kg/ha): 9.0
- MOOVA herbicidal effect rating (MOOVA (Monochoria); 0.1250 kg/ha): 9.0
- MOOVA herbicidal effect rating (MOOVA (Monochoria); 0.2500 kg/ha): 9.0
- Herbicidal rating ZEAMX (ZEAMX (Corn, Field) [1]; rate 0.0158 kg/ha): 5.0
- Herbicidal rating ZEAMX (ZEAMX (Corn, Field) [1]; rate 0.0315 kg/ha): 6.5
- Herbicidal rating ZEAMX (ZEAMX (Corn, Field) [1]; rate 0.0630 kg/ha): 7.0
- Preemergence herbicidal rating ECHCG (ECHCG (Barnyardgrass); rate 0.0156 kg/ha): 0.0
- Preemergence herbicidal rating ECHCG (ECHCG (Barnyardgrass); rate 0.0313 kg/ha): 0.0
- Preemergence herbicidal rating ECHCG (ECHCG (Barnyardgrass); rate 0.0625 kg/ha): 0.0
- Preemergence herbicidal rating ECHCG (ECHCG (Barnyardgrass); rate 0.1250 kg/ha): 0.0
- Preemergence herbicidal rating ECHCG (ECHCG (Barnyardgrass); rate 0.2500 kg/ha): 0.0
- CYPIR herbicidal effect rating (CYPIR (Rice Flatsedge); 0.0313 kg/ha): 5.0
- CYPIR herbicidal effect rating (CYPIR (Rice Flatsedge); 0.0625 kg/ha): 6.0
- CYPIR herbicidal effect rating (CYPIR (Rice Flatsedge); 0.1250 kg/ha): 9.0
- CYPIR herbicidal effect rating (CYPIR (Rice Flatsedge); 0.2500 kg/ha): 9.0
- ECHORC herbicidal effect rating ([2]; 0.0313 kg/ha): 4.0
- ECHORC herbicidal effect rating ([2]; 0.0625 kg/ha): 4.0
- ECHORC herbicidal effect rating ([2]; 0.1250 kg/ha): 5.0
- ECHORC herbicidal effect rating ([2]; 0.2500 kg/ha): 5.0
- Preemergence herbicidal rating SETVI (SETVI (Foxtail, Green); rate 0.0156 kg/ha): 1.0
- Preemergence herbicidal rating SETVI (SETVI (Foxtail, Green); rate 0.0313 kg/ha): 0.0
- Preemergence herbicidal rating SETVI (SETVI (Foxtail, Green); rate 0.0625 kg/ha): 0.0
- Preemergence herbicidal rating SETVI (SETVI (Foxtail, Green); rate 0.1250 kg/ha): 0.0
- Preemergence herbicidal rating SETVI (SETVI (Foxtail, Green); rate 0.2500 kg/ha): 4.0
- Preemergence herbicidal rating CASOB (CASOB (Sicklepod) [3]; rate 0.0156 kg/ha): 2.0
- Preemergence herbicidal rating CASOB (CASOB (Sicklepod) [3]; rate 0.0625 kg/ha): 0.0
- Preemergence herbicidal rating CASOB (CASOB (Sicklepod) [3]; rate 0.1250 kg/ha): 4.0
- Preemergence herbicidal rating CASOB (CASOB (Sicklepod) [3]; rate 0.2500 kg/ha): 2.0
- Preemergence herbicidal rating TRZAWR ([4]; rate 0.0156 kg/ha): 0.0
- Preemergence herbicidal rating TRZAWR ([4]; rate 0.0313 kg/ha): 0.0
- Preemergence herbicidal rating TRZAWR ([4]; rate 0.0625 kg/ha): 0.0
- Preemergence herbicidal rating TRZAWR ([4]; rate 0.1250 kg/ha): 0.0
- Preemergence herbicidal rating TRZAWR ([4]; rate 0.2500 kg/ha): 4.0
- Preemergence herbicidal rating GLXMAW ([5]; rate 0.0156 kg/ha): 0.0
- Preemergence herbicidal rating GLXMAW ([5]; rate 0.0313 kg/ha): 0.0
- Preemergence herbicidal rating GLXMAW ([5]; rate 0.0625 kg/ha): 1.0
- Preemergence herbicidal rating GLXMAW ([5]; rate 0.1250 kg/ha): 3.0
- Preemergence herbicidal rating GLXMAW ([5]; rate 0.2500 kg/ha): 4.0
- Herbicidal rating CASOB (CASOB (Sicklepod) [6]; rate 0.0158 kg/ha): 0.0
- Herbicidal rating CASOB (CASOB (Sicklepod) [6]; rate 0.0315 kg/ha): 1.0
- Herbicidal rating CASOB (CASOB (Sicklepod) [6]; rate 0.0630 kg/ha): 1.0
- Preemergence herbicidal rating GALAP (GALAP (Galium); rate 0.0156 kg/ha): 1.0
- Preemergence herbicidal rating GALAP (GALAP (Galium); rate 0.0313 kg/ha): 3.0
- Preemergence herbicidal rating GALAP (GALAP (Galium); rate 0.0625 kg/ha): 3.0
- Preemergence herbicidal rating GALAP (GALAP (Galium); rate 0.1250 kg/ha): 7.0
- Preemergence herbicidal rating GALAP (GALAP (Galium); rate 0.2500 kg/ha): 9.0
- CYPSE herbicidal effect rating (CYPSE (Flatsedge); 0.0313 kg/ha): 0.0
- CYPSE herbicidal effect rating (CYPSE (Flatsedge); 0.0625 kg/ha): 0.0
- CYPSE herbicidal effect rating (CYPSE (Flatsedge); 0.2500 kg/ha): 6.0
- Preemergence herbicidal rating IPOHE ([7]; rate 0.0156 kg/ha): 0.0
- Preemergence herbicidal rating IPOHE ([7]; rate 0.0313 kg/ha): 0.0
- Preemergence herbicidal rating IPOHE ([7]; rate 0.0625 kg/ha): 0.0
- Preemergence herbicidal rating IPOHE ([7]; rate 0.1250 kg/ha): 2.0
- Preemergence herbicidal rating IPOHE ([7]; rate 0.2500 kg/ha): 7.0
- Preemergence herbicidal rating ZEAMX (ZEAMX (Corn, Field) [8]; rate 0.0156 kg/ha): 0.0
- Preemergence herbicidal rating ZEAMX (ZEAMX (Corn, Field) [8]; rate 0.0313 kg/ha): 0.0
- Preemergence herbicidal rating ZEAMX (ZEAMX (Corn, Field) [8]; rate 0.0625 kg/ha): 0.0
- Preemergence herbicidal rating ZEAMX (ZEAMX (Corn, Field) [8]; rate 0.1250 kg/ha): 1.0
- Preemergence herbicidal rating ZEAMX (ZEAMX (Corn, Field) [8]; rate 0.2500 kg/ha): 2.0
- Preemergence herbicidal rating ABUTH (ABUTH (Velvetleaf); rate 0.0156 kg/ha): 0.0
- Preemergence herbicidal rating ABUTH (ABUTH (Velvetleaf); rate 0.0313 kg/ha): 0.0
- Preemergence herbicidal rating ABUTH (ABUTH (Velvetleaf); rate 0.0625 kg/ha): 0.0
- Preemergence herbicidal rating ABUTH (ABUTH (Velvetleaf); rate 0.1250 kg/ha): 9.0
- Preemergence herbicidal rating ABUTH (ABUTH (Velvetleaf); rate 0.2500 kg/ha): 9.0
- Herbicidal rating IPOHE ([9]; rate 0.0158 kg/ha): 9.0
- Herbicidal rating IPOHE ([9]; rate 0.0315 kg/ha): 9.0
- Herbicidal rating IPOHE ([9]; rate 0.0630 kg/ha): 9.0

Reference: US20020137929A1, “1 - (3-heterocyclylphenyl) isothiourea, -isourea, -guanidine and -amidine herbicidal agents” (Intellectual Property Department, BASF Aktiengesellschaft, priority 1998, published 2002)
